A short description of the series: Solubility of the compound in PGMEA (safe solvent). To be noted: 23° C.; for solubility in PGMEA (amount of dissolution): ultrasonic waves 30 minutes, visual observation. On the procedure: The solubility of the obtained compound in propylene glycol monomethyl ether acetate (PGMEA) was measured as the solubility of the compound in a safe solvent. The solubility was evaluated according to the following criteria utilizing the amount of dissolution in PGMEA. The amount of dissolution in PGMEA was measured at 23° C. by precisely weighing the compound into a test tube, adding PGMEA so as to attain a predetermined concentration, applying ultrasonic waves for 30 minutes in an ultrasonic cleaner, then visually observing the subsequent state of the fluid, and conducting evaluation on the basis of the concentration of the amount of complete dissolution.
A: 5.0% by mass<Amount of dissolution
B: 3.0% by mass<Amount of dissolution<5.0% by mass
C: Amount of dissolution<3.0% by mass

Each structure is given as a SMILES string.

Consider 14 compounds from US20200249573A1, “COMPOSITION FOR RESIST UNDERLAYER FILM FORMATION, UNDERLAYER FILM FOR LITHOGRAPHY, AND PATTERN FORMATION METHOD” (MITSUBISHI GAS CHEMICAL COMPANY, INC., priority 2016, published 2020).

With `Oc1ccc([Te](Cl)(Cl)c2ccc(O)cc2)cc1` [BHPT, bis(4-hydroxyphenyl)tellurium dichloride], the “solubility in PGMEA, evaluation” value is “A (5.0% by mass<Amount of dissolution)” and the “solubility in PGMEA (amount of dissolution)” value was no less than 5 % by mass.
For `CC1(OC(=O)COc2ccc([Te](Cl)(Cl)c3ccc(OCC(=O)OC4(C)C5CC6CC(C5)CC4C6)cc3)cc2)C2CC3CC(C2)CC1C3` (stereo not shown) [BHPT-ADBAC, bis(4-(2-methyl-2-adamantyloxycarbonylmethoxy)phenyl)tellurium dichloride], in that order: “A (5.0% by mass<Amount of dissolution)” and no less than 5 % by mass.
The corresponding values for `CC(C)(C)OC(=O)Oc1ccc([Te](Cl)(Cl)c2ccc(OC(=O)OC(C)(C)C)cc2)cc1` [BHPT-BOC, bis(tert-butoxycarboxyphenyl)tellurium dichloride] are “A (5.0% by mass<Amount of dissolution)” and no less than 5 % by mass.
For `CCOC(C)Oc1ccc([Te](Cl)(Cl)c2ccc(OC(C)OCC)cc2)cc1` (stereo not shown) [BHPT-EE, bis(ethoxyethylphenyl)tellurium dichloride], in that order: “A (5.0% by mass<Amount of dissolution)” and no less than 5 % by mass.
For the compound `Oc1ccc([Te](Cl)(Cl)c2ccc(O)cc2O)cc1` [CCHT, (2,4-dihydroxyphenyl) (4-hydroxyphenyl)tellurium dichloride], the “solubility in PGMEA, evaluation” value is given as “A (5.0% by mass<Amount of dissolution)” and the “solubility in PGMEA (amount of dissolution)” value was no less than 5 % by mass.
With `CC1(OC(=O)COc2ccc([Te](Cl)(Cl)c3ccc(OCC(=O)OC4(C)C5CC6CC(C5)CC4C6)cc3OCC(=O)OC3(C)C4CC5CC(C4)CC3C5)cc2)C2CC3CC(C2)CC1C3` (stereo not shown) [CCHT-ADBAC], the “solubility in PGMEA, evaluation” value is reported as “A (5.0% by mass<Amount of dissolution)” and the “solubility in PGMEA (amount of dissolution)” value is reported as no less than 5 % by mass.
As to `Oc1ccc([Te](Cl)(Cl)c2ccc(O)c(-c3ccccc3)c2)cc1-c1ccccc1` [Ph-BHPT, bis(3-phenyl-4-hydroxyphenyl)tellurium dichloride], the “solubility in PGMEA, evaluation” value is recorded as “A (5.0% by mass<Amount of dissolution)” and the “solubility in PGMEA (amount of dissolution)” value was no less than 5 % by mass.
Turning to `CC1(OC(=O)COc2ccc([Te](Cl)(Cl)c3ccc(OCC(=O)OC4(C)C5CC6CC(C5)CC4C6)c(-c4ccccc4)c3)cc2-c2ccccc2)C2CC3CC(C2)CC1C3` (stereo not shown) [Ph-BHPT-ADBAC], the “solubility in PGMEA, evaluation” value is reported as “A (5.0% by mass<Amount of dissolution)” and the “solubility in PGMEA (amount of dissolution)” value is no less than 5 % by mass.
The corresponding values for `Oc1ccc([Te]c2ccc(O)c(-c3ccccc3)c2)cc1-c1ccccc1` [Ph-TDP, bis(3-phenyl-4-hydroxyphenyl)tellurium] are “A (5.0% by mass<Amount of dissolution)” and no less than 5 % by mass.
With `CC1(OC(=O)COc2ccc([Te]c3ccc(OCC(=O)OC4(C)C5CC6CC(C5)CC4C6)c(-c4ccccc4)c3)cc2-c2ccccc2)C2CC3CC(C2)CC1C3` (stereo not shown) [Ph-TDP-ADBAC], the “solubility in PGMEA, evaluation” value is listed as “A (5.0% by mass<Amount of dissolution)” and the “solubility in PGMEA (amount of dissolution)” value was no less than 5 % by mass.
For `CC(C)(C)OC(=O)COc1ccc([Te]c2ccc(OCC(=O)OC(C)(C)C)c(-c3ccccc3)c2)cc1-c1ccccc1` [Ph-TDP-BOC], in that order: “A (5.0% by mass<Amount of dissolution)” and no less than 5 % by mass.
Turning to `CCOC(C)Oc1ccc([Te](Cl)(Cl)c2ccc(OC(C)OCC)c(-c3ccccc3)c2)cc1-c1ccccc1` (stereo not shown) [Ph-TDP-EE], the “solubility in PGMEA, evaluation” value is on record as “A (5.0% by mass<Amount of dissolution)” and the “solubility in PGMEA (amount of dissolution)” value is no less than 5 % by mass.
For `Oc1ccc([Te]c2ccc(O)cc2)cc1` [TDP, 4,4′-telluriumdiphenol], in that order: “A (5.0% by mass<Amount of dissolution)” and no less than 5 % by mass.
`CC1(OC(=O)COc2ccc([Te]c3ccc(OCC(=O)OC4(C)C5CC6CC(C5)CC4C6)cc3)cc2)C2CC3CC(C2)CC1C3` (stereo not shown) [TDP-ADBAC]: the “solubility in PGMEA, evaluation” value was “A (5.0% by mass<Amount of dissolution)” and the “solubility in PGMEA (amount of dissolution)” value was no less than 5 % by mass.
